The values that follow come from patent US8691261B2, “Drug, drug guidance system, magnetic detection system, and drug design method” (IHI Corporation, priority 2005, dated 2014).

For data set [1] the following is noted: compared to cisplatin; cited from earlier work.
A further data set relates to rat L6 cells. Description: number of rat L6 cells in flask with bar magnet after sprinkling Fe complex powder. Format: cell-based. Particulars: 48 hours, bar magnet in contact with flask. From the text: A group of samples shown on the left side is obtained by diluting a pyridine concentrate solution with water (double distilled water (DDW)), while a group of samples shown on the right side is obtained by diluting a pyridine iron complex saturated solution with pyridine. By changing the concentration of the iron complex in pyridine to, for example, ½ or 1/16 of the aforementioned concentration of the solution containing only pyridine, the MRI can detect changes in the concentration through images. Subsequently, when rat L6 cells were in 30% confluent state, Fe complex powder was sprinkled over a culture medium as much as required to enable visual observation of the Fe complex powder when being drawn to magnets. 48 hours later, the condition of the culture medium was photographed.
Referring to FIG. 22, “proximal to magnet” means within the projected area of the bottom of the rectangular flask in contact with the end face of the magnet, while “distal from magnet” means an area of the rectangular flask opposite the end face of the magnet. […] As a result, the magnetic drug and the system including the magnetic field generating means according to the present invention can concentrate the drug at the target affected part or tissues of an individual body.

The nature of data set [2]: magnetic guidance to mouse right kidney, SNR measured by MRI. Format: in vivo. The settings on record: intravenous, 5 mg/ml (15 mM), right kidney approximately 0.3 T, 10 minutes. From the text:
Next, another example of a guidance system according to the present invention will be explained. In this guidance system, a pair of magnets 230 and 232 located opposite to each other in a direction of gravitational force is supported by a stand 234 and a clamp 235, and a metal plate 236 is placed between the magnets as shown in FIG. 23. A locally uniform and strong magnet field can be generated by placing the metal plate, particularly an iron plate, between the pair of magnets.
The drug can be concentrated on the target tissues by placing the tissues of the individual body in this area of the magnetic field. The aforementioned metal complex (drug concentration: 5 mg/ml (15 mM)) was administered intravenously to a mouse (weight: approximately 30 g), the abdominal cavity of the mouse was opened, and the mouse was then placed on the iron plate so that its right kidney was positioned between the pair of magnets.
The magnets used were neodymium permanent magnets made by Shin-Etsu Chemical Co., Ltd. (product number: N50; residual magnetic flux density: 1.39-1.44 T). […] The magnetic field was applied to the mouse's right kidney; and 10 minutes later, the SNR of the right kidney as well as the left kidney […] (control) to which no magnetic field was applied was measured in T1 mode and T2 mode, using the MRI system.

Take `CC(C[NH-])CC[NH-].O=C([O-])C1(C(=O)[O-])CCC1.[Pt+4]` [NK121]: the anticancer effect result in data set [1] is “comparable to that of cisplatin”.
As to Fe-salen, the “number of cells at area proximal to the magnet compared to area distal from the magnet” value in the data set with rat L6 cells is “extremely low”. The “amount of drug held in kidney tissues (SNR, T1 and T2 mode MRI)” value in data set [2] is listed as “larger amount of the drug could be held in the tissues of the right kidney (RT)”.
